Marks after values point to notes of the source that are not given here.
Tested on: female rats
Assay: Plasma metabolite profiling (GC-MS, LC-MS, SPE-LC-MS) in female rats dosed once daily over 28 days (OECD 407)
Type: in vivo, rat
Details: high dose
Method in brief: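 Metabolites were measured by GC-MS (derivatised) and reversed-phase LC-MS, with steroids by online SPE-LC-MS, in plasma drawn from fasted rats on days 7, 14 and 28 of once-daily dosing (5/sex/group). Values are ratios versus sex-matched untreated controls, normalized to pool samples, with Welch-test p-values.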

C[C@]12C=CC3=C4CCC(=O)C=C4CCC3C1CC[C@@H]2O (stereo partly drawn) [Trenbolone]
3-Hydroxybutyrate (f7, female rats, Table 15a): 2.05 *
DAG (C18:1,C18:2) (f7, female rats, Table 15a): 1.42 *
Glutamate (f7, female rats, Table 15a): 1.18
Glycine (f7, female rats, Table 15a): 1.18 *
Phosphatidylcholine (C16:0,C20:5) (f7, female rats, Table 15a): 1.09
TAG (C16:0,C16:1) (f7, female rats, Table 15a): 1.49 *
TAG (C16:0,C18:1,C18:3) (f7, female rats, Table 15a): 1.48 *
TAG (C16:0,C18:2) (f7, female rats, Table 15a): 1.83 *
TAG (C18:1,C18:2) (f7, female rats, Table 15a): 1.72 *
TAG (C18:2,C18:2) (f7, female rats, Table 15a): 1.61 *
TAG (C18:3, C18:2, C18:1) (f7, female rats, Table 15a): 1.92 *
TAG (DAG-Fragment) (f7, female rats, Table 15a): 1.8 *
TAG No 059 (f7, female rats, Table 15a): 1.62 *
Threonic acid (f7, female rats, Table 15a): 1.28 *
trans-4-Hydroxyproline (f7, female rats, Table 15a): 1.31 *
Androstenedione (f7, female rats, Table 15b): 0.3 *
Arginine (f7, female rats, Table 15b): 0.76 *
Campesterol (f7, female rats, Table 15b): 0.53 *
Ceramide (d18:1,C24:0) (f7, female rats, Table 15b): 0.5 *
Lactate (f7, female rats, Table 15b): 0.65 *
Lysine (f7, female rats, Table 15b): 0.68 *
Metanephrine (f7, female rats, Table 15b): 1
Normetanephrine (f7, female rats, Table 15b): 0.83 *
Phosphatidylcholine (C16:0,C20:5) (f7, female rats, Table 15b): 1.09
Phosphatidylcholine (C16:0,C22:6) (f7, female rats, Table 15b): 0.89
Phosphatidylcholine (C18:0, C20:3) (f7, female rats, Table 15b): 0.77 *
Phosphatidylcholine (C18:0,C18:1) (f7, female rats, Table 15b): 0.84
Progesterone (f7, female rats, Table 15b): 0.34 *
Pyruvate (f7, female rats, Table 15b): 0.57 *
Sphingomyelin (d18:1,C23:0) (f7, female rats, Table 15b): 0.51 *
Sphingomyelin (d18:1,C24:0) (f7, female rats, Table 15b): 0.62 *
Urea (f7, female rats, Table 15b): 0.74 *
3-Hydroxybutyrate (f14, female rats, Table 15a): 1.73 *
DAG (C18:1,C18:2) (f14, female rats, Table 15a): 1.56
Glutamate (f14, female rats, Table 15a): 1.13 *
Glycine (f14, female rats, Table 15a): 1.2 *
Phosphatidylcholine (C16:0,C20:5) (f14, female rats, Table 15a): 1.18 *
TAG (C16:0,C16:1) (f14, female rats, Table 15a): 1.41
TAG (C16:0,C18:1,C18:3) (f14, female rats, Table 15a): 2.26 *
TAG (C16:0,C18:2) (f14, female rats, Table 15a): 1.9
TAG (C18:1,C18:2) (f14, female rats, Table 15a): 1.97 *
TAG (C18:2,C18:2) (f14, female rats, Table 15a): 2.21 *
TAG (C18:3, C18:2, C18:1) (f14, female rats, Table 15a): 2.39 *
TAG (DAG-Fragment) (f14, female rats, Table 15a): 2.67 *
TAG No 059 (f14, female rats, Table 15a): 2.14 *
Threonic acid (f14, female rats, Table 15a): 1.76 *
trans-4-Hydroxyproline (f14, female rats, Table 15a): 1.37 *
Androstenedione (f14, female rats, Table 15b): 0.15 *
Arginine (f14, female rats, Table 15b): 0.69 *
Campesterol (f14, female rats, Table 15b): 0.4 *
Ceramide (d18:1,C24:0) (f14, female rats, Table 15b): 0.41 *
Lactate (f14, female rats, Table 15b): 0.56 *
Lysine (f14, female rats, Table 15b): 0.62 *
Metanephrine (f14, female rats, Table 15b): 1.03
Normetanephrine (f14, female rats, Table 15b): 0.83 *
Phosphatidylcholine (C16:0,C20:5) (f14, female rats, Table 15b): 1.18
Phosphatidylcholine (C16:0,C22:6) (f14, female rats, Table 15b): 0.87 *
Phosphatidylcholine (C18:0, C20:3) (f14, female rats, Table 15b): 0.75 *
Phosphatidylcholine (C18:0,C18:1) (f14, female rats, Table 15b): 0.66 *
Progesterone (f14, female rats, Table 15b): 0.17 *
Pyruvate (f14, female rats, Table 15b): 0.61 *
Sphingomyelin (d18:1,C23:0) (f14, female rats, Table 15b): 0.46 *
Sphingomyelin (d18:1,C24:0) (f14, female rats, Table 15b): 0.64 *
Urea (f14, female rats, Table 15b): 0.72 *
3-Hydroxybutyrate (f28, female rats, Table 15a): 1.32 *
DAG (C18:1,C18:2) (f28, female rats, Table 15a): 1.79 *
Glutamate (f28, female rats, Table 15a): 1.23 *
Glycine (f28, female rats, Table 15a): 1.37 *
Phosphatidylcholine (C16:0,C20:5) (f28, female rats, Table 15a): 1.17 *
TAG (C16:0,C16:1) (f28, female rats, Table 15a): 1.28 *
TAG (C16:0,C18:1,C18:3) (f28, female rats, Table 15a): 2.48 *
TAG (C16:0,C18:2) (f28, female rats, Table 15a): 2.08 *
TAG (C18:1,C18:2) (f28, female rats, Table 15a): 2.25 *
TAG (C18:2,C18:2) (f28, female rats, Table 15a): 2.7 *
TAG (C18:3, C18:2, C18:1) (f28, female rats, Table 15a): 3.06 *
TAG (DAG-Fragment) (f28, female rats, Table 15a): 3.12 *
TAG No 059 (f28, female rats, Table 15a): 2.7 *
Threonic acid (f28, female rats, Table 15a): 0.84
trans-4-Hydroxyproline (f28, female rats, Table 15a): 1.66 *
Androstenedione (f28, female rats, Table 15b): 0.23 *
Arginine (f28, female rats, Table 15b): 0.78 *
Campesterol (f28, female rats, Table 15b): 0.9
Ceramide (d18:1,C24:0) (f28, female rats, Table 15b): 0.69 *
Lactate (f28, female rats, Table 15b): 0.59 *
Lysine (f28, female rats, Table 15b): 0.65 *
Metanephrine (f28, female rats, Table 15b): 0.47 *
Normetanephrine (f28, female rats, Table 15b): 0.75 *
Phosphatidylcholine (C16:0,C20:5) (f28, female rats, Table 15b): 1.17
Phosphatidylcholine (C16:0,C22:6) (f28, female rats, Table 15b): 0.93
Phosphatidylcholine (C18:0, C20:3) (f28, female rats, Table 15b): 0.87 *
Phosphatidylcholine (C18:0,C18:1) (f28, female rats, Table 15b): 0.81 *
Progesterone (f28, female rats, Table 15b): 0.3 *
Pyruvate (f28, female rats, Table 15b): 0.72 *
Sphingomyelin (d18:1,C23:0) (f28, female rats, Table 15b): 0.64 *
Sphingomyelin (d18:1,C24:0) (f28, female rats, Table 15b): 0.74 *
Urea (f28, female rats, Table 15b): 0.54 *
